Measurements reported in paper PMC5587909, “Inhibition of the ATP Synthase Eliminates the Intrinsic Resistance of Staphylococcus aureus towards Polymyxins” (mBio, 2017).
In brackets after ≈: the same amount, converted by molar mass. Bridge positions count the residues as written; N and C are the ends. Square brackets hold non-standard residues; d marks the D form. Peptide text beside a SMILES is read from it. * marks the point of attachment. X1 = CC[C@H](C)CCCCC(=O)*; Dab = NCC[C@H](N)C(=O)O

Tests used:
[1] = test system: S. aureus JE2 atpA transposon mutant (SAUSA300_2060); experiment: microbe, parasite or virus in culture; conditions: Etest on TSA
Source text: (§1) Staphylococcus aureus is intrinsically resistant to the clinically approved cationic antimicrobial peptides polymyxin B (PMB) and colistin ([1], [16]). […] The MIC for PMB was subsequently determined using Etests for the identified mutants.
(§2) The strains used in this study include S. aureus strain JE2 (plasmid-cured derivative of USA300 LAC) and all derivative strains within the Nebraska Transposon Mutant Library (NTML), consisting of 1,920 unique transposon mutants with inactivation of nonessential genes ([15]). The bursa aurealis transposon used to create the collection contains the resistance cassette ermB, which confers resistance to erythromycin ([15]). Additionally we used S. aureus SA113 and two derivatives, SA113 ΔdltA ([9]) and SA113 ΔmprF ([10]). All bacterial strains were cultured at 37°C in tryptic soy broth (TSB) or on tryptic soy agar (TSA), with antimicrobial agents added as indicated. Two methods have been employed to determine MICs to various antimicrobial agents. (i) A 2-fold broth microdilution assay in TSB (100 µl) with an initial inoculum of approximately 5 × 10^5 cells/ml was employed to determine the MICs of polymyxin B sulfate (Sigma), gallidermin (Santa Cruz Biotechnology), nisin (Sigma), bacitracin (Sigma), and LL-37 (Isca Biochemicals). […] The MIC was determined upon incubation at 37°C for 22 h. […]

[2] = test system: S. aureus JE2 graR transposon mutant (SAUSA300_0645); experiment: microbe, parasite or virus in culture; conditions: Etest on TSA
Source text: as §1, §2

[3] = test system: S. aureus JE2 (WT); type: cell-based, Staphylococcus aureus; conditions: Etest on cation-adjusted Mueller-Hinton agar, 37°C, 22 h
Protocol: (§3) It has been reported that growth medium composition can affect polymyxin MIC ([23]): therefore, we also tested polymyxin B MICs of the WT and atpA, graR, vraG, and vraF mutants by employing the Etest on cation-adjusted Mueller-Hinton (MH) agar. […] Polymyxin B breakpoints for Pseudomonas aeruginosa are susceptible at a MIC of ≤2 μg/ml, intermediate at a MIC of 4 μg/ml, and resistant at a MIC of ≥8 μg/ml, whereas for Acinetobacter spp., a MIC of ≥4 μg/ml is considered resistant.
(§4) The strains used in this study include S. aureus strain JE2 (plasmid-cured derivative of USA300 LAC) and all derivative strains within the Nebraska Transposon Mutant Library (NTML), consisting of 1,920 unique transposon mutants with inactivation of nonessential genes ([15]). The bursa aurealis transposon used to create the collection contains the resistance cassette ermB, which confers resistance to erythromycin ([15]). Additionally we used S. aureus SA113 and two derivatives, SA113 ΔdltA ([9]) and SA113 ΔmprF ([10]). All bacterial strains were cultured at 37°C in tryptic soy broth (TSB) or on tryptic soy agar (TSA), with antimicrobial agents added as indicated. Two methods have been employed to determine MICs to various antimicrobial agents. (i) A 2-fold broth microdilution assay in TSB (100 µl) with an initial inoculum of approximately 5 × 10^5 cells/ml was employed to determine the MICs of polymyxin B sulfate (Sigma), gallidermin (Santa Cruz Biotechnology), nisin (Sigma), bacitracin (Sigma), and LL-37 (Isca Biochemicals). (ii) An Etest (BioMérieux) performed on TSA plates was employed to determine MICs for polymyxin B, colistin, ciprofloxacin, oxacillin, linezolid, gentamicin, vancomycin, and daptomycin. The MIC was determined upon incubation at 37°C for 22 h. When indicated, the Etest (BioMérieux) was performed on Mueller-Hinton agar plates (cation adjusted for calcium and magnesium).

[4] = test system: S. aureus JE2 atpA mutant; type: cell-based, Staphylococcus aureus; conditions: Etest on cation-adjusted Mueller-Hinton agar, 37°C, 22 h
Protocol: as §3, §4

[5] = test system: S. aureus JE2 graR mutant; type: cell-based, Staphylococcus aureus; conditions: Etest on cation-adjusted Mueller-Hinton agar, 37°C, 22 h
Protocol: as §3, §4

[6] = test system: S. aureus JE2 vraF mutant; type: cell-based, Staphylococcus aureus; conditions: Etest on cation-adjusted Mueller-Hinton agar, 37°C, 22 h
Protocol: as §3, §4

[7] = test system: S. aureus JE2 vraG mutant; type: cell-based, Staphylococcus aureus; conditions: Etest on cation-adjusted Mueller-Hinton agar, 37°C, 22 h
Protocol: as §3, §4

[8] = test system: S. aureus SA113 (wild type); type: cell-based, Staphylococcus aureus; conditions: MIC method not given, 37°C, 22 h
Source text: (§5) Lysinylation of phosphatidylglycerols therefore seems to mediate selective protection against certain cationic antimicrobial peptides.
as §4, with “The MIC was determined upon incubation at 37°C for 22 h. When indicated, the Etest (BioMérieux) was performed on Mueller-Hinton agar plates (cation adjusted for calcium and magnesium).” left out

[9] = test system: S. aureus SA113 ΔmprF mutant; type: cell-based, Staphylococcus aureus; conditions: MIC method not given, 37°C, 22 h
Source text: as §5
as §4, with “The MIC was determined upon incubation at 37°C for 22 h. When indicated, the Etest (BioMérieux) was performed on Mueller-Hinton agar plates (cation adjusted for calcium and magnesium).” left out

[10] = test system: S. aureus SA113 ΔdltA mutant; type: cell-based, Staphylococcus aureus; conditions: MIC method not given, 37°C, 22 h
Source text: as §4

[11] = test system: S. aureus JE2 (WT); experiment: Kill curve experiment, polymyxin B with or without oligomycin A; type: cell-based, Staphylococcus aureus; conditions: WT JE2 in TSB; PMB alone at 0.25× MIC of WT; 4 h
Source text: The ATP synthase is a well-described protein complex, and multiple inhibitors have been identified that interfere with its function—e.g., the macrolide oligomycin A ([32]). […] The combinatory efficacy of PMB and oligomycin A is similar to the observed killing efficacy of PMB against the atpA mutant.
FIG 4 Improved killing efficacy of PMB upon inhibition of the ATP synthase. […] The data represent the average from three measurements, with error bars showing 95% confidence intervals.
From overnight cultures of S. aureus JE2 and the derivative atpA mutant, 100 μl was diluted into 900 μl fresh TSB medium in a Falcon tube and grown for 1 h for the cells to reach the early exponential phase. After 1 h, the cultures were diluted into 10 ml fresh TSB medium in 100-ml Erlenmeyer flasks, reaching an initial cell count of approximately 10^6 cells/ml. Oligomycin A (Sigma) was added to flasks as indicated at a concentration of 8 μg/ml. […] CFU were determined on TSA plates before addition of oligomycin A (time zero [T0]), before addition of polymyxin B (time 30 min [T30]), and every hour for the following 4 h.

CC[C@H](C)CCCCC(=O)N[C@@H](CCN)C(=O)N[C@H](C(=O)N[C@@H](CCN)C(=O)N[C@H]1CCNC(=O)[C@H]([C@@H](C)O)NC(=O)[C@H](CCN)NC(=O)[C@H](CCN)NC(=O)[C@H](CC(C)C)NC(=O)[C@@H](Cc2ccccc2)NC(=O)[C@H](CCN)NC1=O)[C@@H](C)O [Polymyxin B, polymyxin B] (X1-[Dab]T[Dab][Dab][Dab][dF]L[Dab][Dab]T; lactam 4-C (inferred); N-terminus assumed)
MIC ([1]; 37°C, 22 h, atpA mutant): 16 µg/mL (≈ 13.3 µM)
fold reduction in MIC / increased sensitivity relative to WT ([1]; atpA mutant vs WT JE2): 8 fold
MIC ([2]; 37°C, 22 h, graR mutant): 16 µg/mL (≈ 13.3 µM)
fold reduction in MIC / increased sensitivity relative to WT ([2]; graR mutant vs WT JE2): 8 fold
MIC [3]: 8 to 16 µg/mL
MIC [4]: 2 to 4 µg/mL
MIC [5]: 1 to 2 µg/mL
MIC [6]: 1.5 to 2 µg/mL
MIC [7]: 1.5 to 2 µg/mL
MIC [8]: 512 µg/mL (≈ 425 µM)
MIC [9]: 384 µg/mL (≈ 319 µM)
MIC [10]: 48 µg/mL (≈ 39.9 µM)
killing efficacy (CFU over time) [11]: continued growth
